Laboratory results from patent US7811797B2, “α-isomaltosylglucosaccharide-forming enzyme, process and uses of the same” (Kabushiki Kaisha Hayashibara Seibutsu Kagaku Kenkyujo, priority 2000, dated 2010).

Legend:
Set-up in all cases: key: −: no saccharide-transferred product was detected through transfer reaction to acceptor; ∀: a saccharide-transferred product was detected in an amount less than one percent through transfer reaction to acceptor; +: a saccharide-transferred product was detected in an amount over one percent but less than ten percent through transfer reaction to acceptor; ++: a saccharide-transferred product was detected in an amount over ten percent through transfer reaction to acceptor
[1] = system: α-isomaltosylglucosaccharide-forming enzyme; assay: Transfer-acceptor specificity, Enzyme of Strain C9; format: biochemical, Bacillus globisporus C9; conditions: acceptor 1.6%, PINE-DEX #100 donor 4%, one unit/g donor, 30° C., pH 6.0, 24 hours
Protocol: (§1) Using different saccharides, it was tested whether the saccharides were used as transferring-acceptors for the α-isomaltosylglucosaccharide-forming enzyme of the present invention. A solution of D-glucose, D-xylose, L-xylose, D-galactose, D-fructose, D-mannose, D-arabinose, D-fucose, D-psicose, L-sorbose, L-rhamnose, methyl-α-glucopyranoside, methyl-β-glucopyranoside, N-acetyl-glucosamine, sorbitol, trehalose, isomaltose, isomaltotriose, cellobiose, gentibiose, glycerol, maltitol, lactose, sucrose, α-cyclodextrin, β-cyclodextrin, γ-cyclodextrin, or L-ascorbic acid was prepared.
(§2) To each solution with a saccharide concentration of 1.6% was added “PINE-DEX #100”, a partial starch hydrolysate, as a saccharide donor, to give a concentration of 4%, and admixed with one unit/g saccharide donor, d.s.b., of either of purified specimens of α-isomaltosylglucosaccharide-forming enzyme from Bacillus globisporus C9 obtained by the method in Experiment 4-2, Bacillus globisporus C11 obtained by the method in Experiment 7-2, Bacillus globisporus N75 obtained by the method in Experiment 11-2, or Arthrobacter globiformis A19 obtained by the method in Experiment 15-2, and incubated at 30° C. and pH 6.0, except that pH 8.4 was used for the enzyme from Arthrobacter globiformis A19, for 24 hours. The reaction mixtures of the post-enzymatic reactions were analyzed on gas chromatography (abbreviated as “GLC” hereinafter) for monosaccharides and disaccharides as acceptors, and on HPLC for trisaccharides as acceptors to confirm whether these saccharides could be used as their transfer acceptors. In the case of performing GLC, the following apparatuses and conditions are used: GLC apparatus, “GC-16A” commercialized by Shimadzu Corporation, Tokyo, Japan; column, a stainless-steel column, 3 mm in diameter and 2 m in length, packed with 2% “SILICONE OV-17/[…]”, commercialized by GL Sciences Inc., Tokyo, Japan; carrier gas, nitrogen gas at a flow rate of 40 ml/min under temperature conditions of increasing from 160° C. to 320° C. at an increasing temperature rate of 7.5° C./min; and detection, a hydrogen flame ionization detector. In the case of HPLC analysis, the apparatuses and conditions used are: HPLC apparatus, “CCPD” commercialized by Tosoh Corporation, Tokyo, Japan; column, “ODS-AQ-303” commercialized by YMC Co., Ltd., Tokyo, Japan; eluent, water at a flow rate of 0.5 ml/min; and detection, a differential refractometer.

[2] = system: α-isomaltosylglucosaccharide-forming enzyme; assay: Transfer-acceptor specificity, Enzyme of Strain C11; format: biochemical, Bacillus globisporus C11; conditions: acceptor 1.6%, PINE-DEX #100 donor 4%, one unit/g donor, 30° C., pH 6.0, 24 hours
Protocol: as §1, §2

[3] = system: α-isomaltosylglucosaccharide-forming enzyme; assay: Transfer-acceptor specificity, Enzyme of Strain A19; format: biochemical, Arthrobacter globiformis A19; conditions: acceptor 1.6%, PINE-DEX #100 donor 4%, one unit/g donor, 30° C., pH 8.4, 24 hours
Protocol: as §1, §2

[4] = system: α-isomaltosylglucosaccharide-forming enzyme; assay: Transfer-acceptor specificity, Enzyme of Strain N75; format: biochemical, Bacillus globisporus N75; conditions: acceptor 1.6%, PINE-DEX #100 donor 4%, one unit/g donor, 30° C., pH 6.0, 24 hours
Protocol: as §1, §2

Compound	Product of transferring reaction, Enzyme of Strain C9 [1]	Product of transferring reaction, Enzyme of Strain C11 [2]	Product of transferring reaction, Enzyme of Stain A19 [3]	Product of transferring reaction, Enzyme of Strain N75 [4]
CC(=O)N[C@H]1C(O)O[C@H](CO)[C@@H](O)[C@@H]1O (stereo partly drawn) [N-Acetyl-glucosamine]	+ (a saccharide-transferred product was detected in an amount over one percent but less than ten percent through transfer reaction to acceptor)	+ (a saccharide-transferred product was detected in an amount over one percent but less than ten percent through transfer reaction to acceptor)	−	+ (a saccharide-transferred product was detected in an amount over one percent but less than ten percent through transfer reaction to acceptor)
OCC(O)CO [Glycerol]	+ (a saccharide-transferred product was detected in an amount over one percent but less than ten percent through transfer reaction to acceptor)	+ (a saccharide-transferred product was detected in an amount over one percent but less than ten percent through transfer reaction to acceptor)	+ (a saccharide-transferred product was detected in an amount over one percent but less than ten percent through transfer reaction to acceptor)	+ (a saccharide-transferred product was detected in an amount over one percent but less than ten percent through transfer reaction to acceptor)
O=C[C@H](O)[C@@H](O)[C@H](O)CO [D-Xylose]	++ (a saccharide-transferred product was detected in an amount over ten percent through transfer reaction to acceptor)	++ (a saccharide-transferred product was detected in an amount over ten percent through transfer reaction to acceptor)	+ (a saccharide-transferred product was detected in an amount over one percent but less than ten percent through transfer reaction to acceptor)	++ (a saccharide-transferred product was detected in an amount over ten percent through transfer reaction to acceptor)
O=C[C@@H](O)[C@@H](O)[C@H](O)[C@H](O)CO [D-Mannose]	−	−	∀ (a saccharide-transferred product was detected in an amount less than one percent through transfer reaction to acceptor)	−
OC[C@H]1O[C@@H]2O[C@H]3[C@H](O)[C@@H](O)[C@@H](O[C@H]4[C@H](O)[C@@H](O)[C@@H](O[C@H]5[C@H](O)[C@@H](O)[C@@H](O[C@H]6[C@H](O)[C@@H](O)[C@@H](O[C@H]7[C@H](O)[C@@H](O)[C@@H](O[C@H]8[C@H](O)[C@@H](O)[C@@H](O[C@H]1[C@H](O)[C@H]2O)O[C@@H]8CO)O[C@@H]7CO)O[C@@H]6CO)O[C@@H]5CO)O[C@@H]4CO)O[C@@H]3CO [β-Cyclodextrin]	−	−	−	−
O=C1O[C@H]([C@@H](O)CO)C(O)=C1O [L-Ascorbic acid]	+ (a saccharide-transferred product was detected in an amount over one percent but less than ten percent through transfer reaction to acceptor)	+ (a saccharide-transferred product was detected in an amount over one percent but less than ten percent through transfer reaction to acceptor)	+ (a saccharide-transferred product was detected in an amount over one percent but less than ten percent through transfer reaction to acceptor)	+ (a saccharide-transferred product was detected in an amount over one percent but less than ten percent through transfer reaction to acceptor)
C[C@H](O)[C@H](O)[C@@H](O)[C@@H](O)C=O [L-Rhamnose]	−	−	−	−
O=C(CO)[C@@H](O)[C@H](O)[C@H](O)CO [D-Fructose]	+ (a saccharide-transferred product was detected in an amount over one percent but less than ten percent through transfer reaction to acceptor)	+ (a saccharide-transferred product was detected in an amount over one percent but less than ten percent through transfer reaction to acceptor)	+ (a saccharide-transferred product was detected in an amount over one percent but less than ten percent through transfer reaction to acceptor)	+ (a saccharide-transferred product was detected in an amount over one percent but less than ten percent through transfer reaction to acceptor)
O=C[C@@H](O)[C@H](O)[C@H](O)CO [D-Arabinose]	∀ (a saccharide-transferred product was detected in an amount less than one percent through transfer reaction to acceptor)	∀ (a saccharide-transferred product was detected in an amount less than one percent through transfer reaction to acceptor)	∀ (a saccharide-transferred product was detected in an amount less than one percent through transfer reaction to acceptor)	∀ (a saccharide-transferred product was detected in an amount less than one percent through transfer reaction to acceptor)
